# Laboratory results as given in PMC7562955 (Nature Communications, 2020).
# Read-outs that look alike come from different tables or passages of the source.
# Experiments:
# [1] = Solubility measurement in isotonic buffer; type: physicochemical; details: isotonic disodium hydrogen phosphate/citric acid buffer, 25 °C, aqueous buffer, kinetic from dmso stock; pH 7.4 buffer
# Protocol: Compound was dissolved in dimethyl sulfoxide at 10 mM. A 1.75% disodium hydrogen phosphate aqueous solution and a 5.53% citric acid aqueous solution were mixed while monitoring with a pH meter to prepare an isotonic buffer solution having a pH of 7.4. The dimethyl sulfoxide solution and the isotonic buffer solution of pH 7.4 was mixed and shaken at 110 rpm for 90 min at 25 °C by a constant temperature incubator shaker. After standing for 16–20 h, the mixture was centrifuged to precipitate insoluble matter, and the supernatant was collected. Separately, standard solutions of the compound were prepared by dissolving the compound in a mixture of acetonitrile and water (1:1). The analytical sample and the standard solutions were measured by UHPLC-UV (Waters, USA). The degree of solubility was calculated by comparing the peak area of the analytical sample with standard solutions.
# TLR7 = biological target: T1, TLR7 (Homo sapiens, UniProt Q9NYK1); assay: Human TLR7 reporter gene inhibitory activity assay (NF-κB/SEAP HEK293); type: cell-based; set-up: host or cells: HEK293 (TLR7/NF-κB/SEAPorter); details: for IC50 / human TLR7 activity, reporter signal: R848 200 nM
# T1 sequence (Q9NYK1 27-1049): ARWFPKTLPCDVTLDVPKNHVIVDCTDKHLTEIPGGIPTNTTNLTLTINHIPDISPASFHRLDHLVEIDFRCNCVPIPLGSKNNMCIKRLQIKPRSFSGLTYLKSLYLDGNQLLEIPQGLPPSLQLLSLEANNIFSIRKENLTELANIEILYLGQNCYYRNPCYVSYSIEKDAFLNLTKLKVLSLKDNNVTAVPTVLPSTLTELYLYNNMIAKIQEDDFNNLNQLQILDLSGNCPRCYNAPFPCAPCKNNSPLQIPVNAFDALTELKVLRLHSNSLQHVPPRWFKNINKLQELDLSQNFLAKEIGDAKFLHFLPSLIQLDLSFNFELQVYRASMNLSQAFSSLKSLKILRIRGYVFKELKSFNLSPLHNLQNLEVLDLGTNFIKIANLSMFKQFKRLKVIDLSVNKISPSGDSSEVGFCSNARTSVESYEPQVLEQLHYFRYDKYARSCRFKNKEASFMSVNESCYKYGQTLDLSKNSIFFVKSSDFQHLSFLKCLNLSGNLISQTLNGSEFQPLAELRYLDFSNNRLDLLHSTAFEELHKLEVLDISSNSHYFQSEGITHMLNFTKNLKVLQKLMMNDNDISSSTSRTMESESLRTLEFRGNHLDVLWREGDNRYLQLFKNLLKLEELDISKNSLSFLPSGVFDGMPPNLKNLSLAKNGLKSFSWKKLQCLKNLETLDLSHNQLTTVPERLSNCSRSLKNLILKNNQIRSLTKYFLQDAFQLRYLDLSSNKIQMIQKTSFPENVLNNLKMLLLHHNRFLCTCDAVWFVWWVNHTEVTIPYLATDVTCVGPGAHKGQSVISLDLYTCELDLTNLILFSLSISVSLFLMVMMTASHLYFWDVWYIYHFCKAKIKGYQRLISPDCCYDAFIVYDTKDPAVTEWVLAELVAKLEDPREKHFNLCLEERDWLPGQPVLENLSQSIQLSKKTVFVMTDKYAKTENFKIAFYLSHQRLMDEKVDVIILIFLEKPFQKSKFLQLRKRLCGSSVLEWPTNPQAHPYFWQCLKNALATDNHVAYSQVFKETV
# Protocol: Compounds were dissolved in dimethyl sulfoxide. Before stimulation with compound, Human TLR7 reporter cell line (TLR7/NF-κB/SEAPorter^TM HEK293 cell, Novus Biological, USA), human TLR8 reporter cell line (TLR8/NF-κB/SEAPorter^TM HEK293 cell, Novus Biological), and human TLR9 reporter cell line (TLR9/NF-κB/SEAPorter^TM HEK293 cell, Novus Biological) were seeded in 96-well microtiter plate (AGC techno glass, Japan) at 5 × 10^4 cells/well in DMEM (GIBCO, United Kingdam) with 10 % fetal bovine serum (GIBCO), and 10 ug/ml Blastcidin S HCl (GIBCO) and incubated at 37 °C in 5% CO2. The plates were incubated over-night and then stimulated with various concentrations of compound. […] After 30 min, R848 (human TLR7/8 ligand, synthesized at Sumitomo Dainippon Pharma, Japan) or CpG2006 (human TLR9 ligand, Hokkaido System Science Co., Ltd., Japan) added to each well, wherein each final concentration were adjusted to 200 nM R848 (human TLR7), 30 μM R848 (human TLR8), or 500 nM CpG2006 (human TLR9). The plates were then incubated an additional 20 ± 1 h at 37 °C in 5% CO2 and then the secreted embryonic alkaline phosphatase (SEAP) activity was measured as activation of human TLR7, 8, and 9. The SEAP activity was evaluated as follows: pNPP (Invitrogen, USA) was added to the incubated sample (50 μl/well); after 15 min, 4 M sodium hydroxide solution (nacalai tesque, Japan) was added thereto (50 μl/well) to quench the reaction; and the absorbance of each sample was measured at 405 nm with microplate reader SpectraMax M4 (Molecular Devices, USA).
# [2] = read-out: TLR7 inhibitory activity IC50
Structure (SMILES),solubility at 90 min [1] [µg/mL],selectivity for TLR7 over TLR8 and TLR9 (TLR7),IC50 (TLR7; [2]) [nM],"human TLR7 activity, reporter signal (TLR7; compound 0.0001 nM (as headed))","human TLR7 activity, reporter signal (TLR7; compound 0.001 nM (as headed))","human TLR7 activity, reporter signal (TLR7; compound 0.003 nM (as headed))","human TLR7 activity, reporter signal (TLR7; compound 0.01 nM (as headed))","human TLR7 activity, reporter signal (TLR7; compound 0.03 nM (as headed))","human TLR7 activity, reporter signal (TLR7; compound 0.1 nM (as headed))","human TLR7 activity, reporter signal (TLR7; compound 0.3 nM (as headed))","human TLR7 activity, reporter signal (TLR7; compound 1 nM (as headed))","human TLR7 activity, reporter signal (TLR7; compound 3 nM (as headed))","human TLR7 activity, reporter signal (TLR7; compound 10 nM (as headed))","human TLR7 activity, reporter signal (TLR7; compound 30 nM (as headed))","human TLR7 activity, reporter signal (TLR7; compound 100 nM (as headed))",IC50 (TLR7; read-out: TLR7 inhibitory potency IC50) [nM]
CCOc1nc(C)c2nc(-c3cncc(F)c3)n(Cc3ccc(CN4C[C@@H]5C[C@H]4CN5C)cc3)c2n1 [Cpd-7],> 150,high TLR7 selectivity,15,1.983,1.718,1.528,1.179,0.5917,0.1271,0.01692,-0.02107,-0.03277,-0.02908,-0.03703,-0.01692,–
CCCCOc1nc(N)c2nc(-c3cccnc3)n(Cc3ccccc3)c2n1 [Cpd-5],0.3,–,–,2.067,1.898,1.879,1.8207,1.853,1.8291,1.986,1.7924,1.5762,1.162,0.6856,0.7605,5000
"CCN(CCO)CCCC(C)Nc1ccnc2cc(Cl)ccc12 (stereo not drawn) [HCQ, hydroxychloroquine, reference compound]",–,–,–,1.977,–,–,1.7427,1.684,1.7194,1.681,1.5856,1.338,1.109,0.2449,0.0133,–
CCOc1nc(N)c2nc(-c3cncc(F)c3)n(Cc3ccc(CN4C[C@@H]5C[C@H]4CN5C)cc3)c2n1 [Cpd-6],> 150,high TLR7 selectivity,25,1.983,1.907,1.643,1.354,0.8446,0.3393,0.1771,0.006275,-0.01137,-0.02343,-0.03198,-0.04843,–
